ChEMBL document CHEMBL1144734, “Inhibitory effect of xanthones isolated from the pericarp of Garcinia mangostana L. on rat basophilic leukemia RBL-2H3 cell degranulation” (Bioorg Med Chem, 2008)
Activity calls are given as the source filed them. The rule behind the calls is not given here.

Columns and labels:
[1] = molecular target: Mitogen-activated protein kinase 1 (ERK2), Rattus norvegicus (UniProt P63086); assay: Inhibition of ERK2 phosphorylation in IgE-sensitized rat RBL2H3 cells […] at 100 uM after 30 mins; conditions: RBL-2H3
[2] = molecular target: Mitogen-activated protein kinase 3 (ERK1), Rattus norvegicus (UniProt P21708); assay: Inhibition of ERK1 phosphorylation in IgE-sensitized rat RBL2H3 cells […] at 100 uM after 30 mins; conditions: RBL-2H3
[3] = molecular target: Tyrosine-protein kinase SYK (Rattus norvegicus) (UniProt Q64725); assay: Inhibition of ERK1 phosphorylation in IgE-sensitized rat RBL2H3 cells […] at 50 uM after 30 mins; assay type: cell-based; conditions: RBL-2H3
[4] = molecular target: Tyrosine-protein kinase SYK (Rattus norvegicus) (UniProt Q64725); assay: Inhibition of ERK2 phosphorylation in IgE-sensitized rat RBL2H3 cells […] at 50 uM after 30 mins; assay type: cell-based; conditions: RBL-2H3
[5] = test system: RBL-2H3; assay: Inhibition of DNP-BSA stimulated histamine release in IgE-sensitized rat RBL2H3 cells after 30 mins; assay type: functional, cell-based
[6] = test system: RBL-2H3; assay: Inhibition of A23187-induced degranulation in rat RBL2H3 cells; assay type: functional, cell-based
[7] = test system: RBL-2H3; assay: Inhibition of DNP-BSA induced intracellular calcium elevation in IgE-sensitized rat RBL2H3 cells at 20 uM after 30 mins; assay type: functional, cell-based
[8] = test system: RBL-2H3; assay: Decrease in FcepsilonRI-induced intracellular ROS level in IgE-sensitized rat RBL2H3 cells assessed as DCF oxidation at 20 uM after 30 mins; assay type: functional, cell-based
[9] = molecular target: Tyrosine-protein kinase Lyn (Rattus norvegicus) (UniProt Q07014); assay: Inhibition of Lyn phosphorylation in IgE-sensitized rat RBL2H3 cells at 20 uM; assay type: cell-based; conditions: RBL-2H3
[10] = molecular target: Tyrosine-protein kinase SYK (Rattus norvegicus) (UniProt Q64725); assay: Inhibition of Syk phosphorylation in IgE-sensitized rat RBL2H3 cells at 20 uM; assay type: cell-based; conditions: RBL-2H3
[11] = test system: RBL-2H3; assay: Inhibition of p38 phosphorylation in IgE-sensitized rat RBL2H3 cells at 20 uM; assay type: cell-based
[12] = molecular target: Mitogen-activated protein kinase 1 (ERK2), Rattus norvegicus (UniProt P63086); assay: Inhibition of ERK2 phosphorylation in IgE-sensitized rat RBL2H3 cells at 20 uM; conditions: RBL-2H3
[13] = molecular target: Mitogen-activated protein kinase 9 (JNK2), Rattus norvegicus (UniProt P49186); assay: Inhibition of JNK2 phosphorylation in IgE-sensitized rat RBL2H3 cells at 20 uM; conditions: RBL-2H3
[14] = molecular target: Mitogen-activated protein kinase 3 (ERK1), Rattus norvegicus (UniProt P21708); assay: Inhibition of ERK1 phosphorylation in IgE-sensitized rat RBL2H3 cells at 20 uM; conditions: RBL-2H3
[15] = molecular target: Mitogen-activated protein kinase 8 (JNK1), Rattus norvegicus (UniProt P49185); assay: Inhibition of JNK1 phosphorylation in IgE-sensitized rat RBL2H3 cells at 20 uM; conditions: RBL-2H3
[16] = test system: Phospholipase C-gamma-1, Rattus norvegicus; assay: Inhibition of PLC-gamma1 phosphorylation in IgE-sensitized rat RBL2H3 cells at 20 uM; conditions: RBL-2H3
[17] = test system: Phospholipase C-gamma-2, Rattus norvegicus; assay: Inhibition of PLC-gamma2 phosphorylation in IgE-sensitized rat RBL2H3 cells at 20 uM; conditions: RBL-2H3
[18] = molecular target: Mitogen-activated protein kinase 1 (ERK2), Rattus norvegicus (UniProt P63086); assay: Inhibition of ERK2 phosphorylation in IgE-sensitized rat RBL2H3 cells […] at 2 uM after 30 mins; conditions: RBL-2H3
[19] = molecular target: Mitogen-activated protein kinase 3 (ERK1), Rattus norvegicus (UniProt P21708); assay: Inhibition of ERK1 phosphorylation in IgE-sensitized rat RBL2H3 cells […] at 2 uM after 30 mins; conditions: RBL-2H3
[20] = test system: Radical scavenging activity; assay: Antioxidant activity assessed as DPPH radical scavenging activity; assay type: functional

Mitogen-activated protein kinase 3 (ERK1), Rattus norvegicus, sequence (P21708 whole entry, looked up): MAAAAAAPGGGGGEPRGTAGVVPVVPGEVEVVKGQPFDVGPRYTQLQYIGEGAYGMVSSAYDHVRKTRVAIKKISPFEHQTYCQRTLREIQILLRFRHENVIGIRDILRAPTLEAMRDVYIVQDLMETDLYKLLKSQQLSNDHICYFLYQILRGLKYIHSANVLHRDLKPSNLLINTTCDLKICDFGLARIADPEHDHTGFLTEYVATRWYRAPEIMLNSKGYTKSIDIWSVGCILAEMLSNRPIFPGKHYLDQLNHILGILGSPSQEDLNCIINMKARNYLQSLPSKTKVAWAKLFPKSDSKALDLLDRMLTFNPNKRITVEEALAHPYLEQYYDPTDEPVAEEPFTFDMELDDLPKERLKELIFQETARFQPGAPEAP
Mitogen-activated protein kinase 1 (ERK2), Rattus norvegicus, sequence (P63086 whole entry, looked up): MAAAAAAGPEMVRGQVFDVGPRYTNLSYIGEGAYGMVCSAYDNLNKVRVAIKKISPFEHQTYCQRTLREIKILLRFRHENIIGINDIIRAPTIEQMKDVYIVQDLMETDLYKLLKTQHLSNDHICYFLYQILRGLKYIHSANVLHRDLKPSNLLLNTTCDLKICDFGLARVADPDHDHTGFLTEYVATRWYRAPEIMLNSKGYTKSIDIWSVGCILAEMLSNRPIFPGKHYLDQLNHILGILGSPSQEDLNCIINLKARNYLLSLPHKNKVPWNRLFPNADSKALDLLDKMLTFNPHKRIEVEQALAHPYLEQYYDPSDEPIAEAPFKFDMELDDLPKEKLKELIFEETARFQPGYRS
Tyrosine-protein kinase Lyn (Rattus norvegicus), sequence (Q07014 whole entry): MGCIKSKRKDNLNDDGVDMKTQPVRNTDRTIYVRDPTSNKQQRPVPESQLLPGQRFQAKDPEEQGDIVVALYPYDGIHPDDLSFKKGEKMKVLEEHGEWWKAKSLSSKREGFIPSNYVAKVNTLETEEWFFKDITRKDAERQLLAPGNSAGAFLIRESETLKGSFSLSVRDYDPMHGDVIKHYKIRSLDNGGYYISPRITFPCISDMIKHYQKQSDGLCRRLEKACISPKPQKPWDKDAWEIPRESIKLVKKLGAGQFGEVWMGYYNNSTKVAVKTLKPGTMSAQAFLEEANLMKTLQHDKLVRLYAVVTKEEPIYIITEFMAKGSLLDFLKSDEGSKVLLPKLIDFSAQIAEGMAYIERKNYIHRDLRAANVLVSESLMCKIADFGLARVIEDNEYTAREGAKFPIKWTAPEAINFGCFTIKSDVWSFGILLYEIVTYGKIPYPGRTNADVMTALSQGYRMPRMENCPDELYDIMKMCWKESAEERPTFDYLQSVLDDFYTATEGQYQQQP
Tyrosine-protein kinase SYK (Rattus norvegicus), sequence (Q64725 whole entry, looked up): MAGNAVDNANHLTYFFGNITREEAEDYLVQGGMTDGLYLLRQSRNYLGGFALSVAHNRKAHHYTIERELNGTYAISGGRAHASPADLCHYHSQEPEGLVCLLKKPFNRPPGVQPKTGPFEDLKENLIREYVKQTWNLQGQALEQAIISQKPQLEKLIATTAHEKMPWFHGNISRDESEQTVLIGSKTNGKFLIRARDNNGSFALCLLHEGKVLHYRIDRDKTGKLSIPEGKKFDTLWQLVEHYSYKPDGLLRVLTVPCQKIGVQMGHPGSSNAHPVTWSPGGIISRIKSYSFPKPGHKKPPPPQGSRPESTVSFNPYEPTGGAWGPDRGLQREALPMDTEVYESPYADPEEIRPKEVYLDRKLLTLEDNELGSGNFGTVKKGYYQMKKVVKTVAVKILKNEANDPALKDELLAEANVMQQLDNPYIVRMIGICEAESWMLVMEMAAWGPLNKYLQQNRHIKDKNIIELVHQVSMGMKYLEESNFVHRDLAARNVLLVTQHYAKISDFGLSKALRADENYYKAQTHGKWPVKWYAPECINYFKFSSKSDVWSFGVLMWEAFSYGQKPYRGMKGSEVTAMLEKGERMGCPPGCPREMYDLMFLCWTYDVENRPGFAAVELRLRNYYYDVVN
Mitogen-activated protein kinase 9 (JNK2), Rattus norvegicus, sequence (P49186 whole entry, looked up): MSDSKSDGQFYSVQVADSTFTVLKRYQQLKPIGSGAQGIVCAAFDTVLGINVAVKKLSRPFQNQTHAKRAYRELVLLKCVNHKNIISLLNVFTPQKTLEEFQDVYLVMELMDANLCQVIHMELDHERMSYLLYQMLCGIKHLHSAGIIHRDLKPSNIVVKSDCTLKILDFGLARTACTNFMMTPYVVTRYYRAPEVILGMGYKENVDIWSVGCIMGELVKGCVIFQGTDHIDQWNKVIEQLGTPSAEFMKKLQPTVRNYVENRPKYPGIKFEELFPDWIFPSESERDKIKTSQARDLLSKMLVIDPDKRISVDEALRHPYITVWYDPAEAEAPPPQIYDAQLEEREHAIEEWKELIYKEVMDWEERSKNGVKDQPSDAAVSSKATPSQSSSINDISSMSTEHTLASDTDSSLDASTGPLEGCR
Mitogen-activated protein kinase 8 (JNK1), Rattus norvegicus, sequence (P49185 whole entry, looked up): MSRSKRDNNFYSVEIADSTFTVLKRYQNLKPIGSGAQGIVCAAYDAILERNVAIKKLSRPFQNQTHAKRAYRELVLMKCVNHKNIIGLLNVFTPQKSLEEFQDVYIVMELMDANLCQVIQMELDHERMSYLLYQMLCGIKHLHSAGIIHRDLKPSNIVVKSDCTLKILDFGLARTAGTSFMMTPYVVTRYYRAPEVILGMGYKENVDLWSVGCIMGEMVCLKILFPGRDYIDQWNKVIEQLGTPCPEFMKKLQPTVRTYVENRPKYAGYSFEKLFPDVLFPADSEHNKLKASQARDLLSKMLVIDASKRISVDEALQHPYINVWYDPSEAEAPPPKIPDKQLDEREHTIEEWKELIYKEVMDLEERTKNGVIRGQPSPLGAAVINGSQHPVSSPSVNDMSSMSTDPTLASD

SMILES	Activity [5]	Activity [6]	Activity [7]	Activity [8]	Activity [9]	Activity [10]	Activity [11]	Activity [12]	Activity [13]	Activity [14]	Activity [15]	other results
CN(C)C[C@H]1CCn2c(c(C3=C(c4cn(C)c5ccccc45)C(=O)NC3=O)c3ccccc32)C1												Activity [1]: inactive; Activity [2]: inactive
COc1c(C[C@@H](C)OC(=O)Oc2ccc(O)cc2)c2c3c(C[C@@H](C)OC(=O)c4ccccc4)c(OC)c(=O)c4c(O)cc(OC)c(c5c(OC)cc(O)c(c1=O)c52)c43												Activity [3]: inactive; Activity [4]: inactive
COc1cc2oc3cc(O)c(OC)c(CC=C(C)C)c3c(=O)c2c(O)c1CC=C(C)C	Dose-dependent effect	inactive	Active	inactive	inactive	Active	inactive	Active	inactive	Active	inactive	Activity [16]: Active; Activity [17]: Active
O=c1cc(N2CCOCC2)oc2c(-c3ccccc3)cccc12		Active										Activity [18]: inactive
CC(=O)c1c(O)c(C)c(O)c(Cc2c(O)c3c(c(C(=O)/C=C/c4ccccc4)c2O)OC(C)(C)C=C3)c1O												Activity [18]: inactive; Activity [2]: inactive
COc1ccc2c(c1)c(C1=C(c3c[nH]c4ccccc34)C(=O)NC1=O)cn2CCCN(C)C												Activity [19]: inactive; Activity [1]: inactive
COc1c(O)cc2oc3cc(O)c(CC=C(C)C)c(O)c3c(=O)c2c1CC=C(C)C	Dose-dependent effect	inactive	Active	inactive	inactive	Active	inactive	Active	inactive	Active	inactive	
CC(C)=CCc1c(O)cc2oc3cc(O)c(O)c(CC=C(C)C)c3c(=O)c2c1O	Dose-dependent effect	inactive	Active	Active	inactive	Active	inactive	Active	inactive	Active	inactive	Activity [20]: Active
